Source: US20220257516A1, “THERAPEUTIC CONSTRUCTS FOR CO-DELIVERY OF MITOTIC KINASE INHIBITOR AND IMMUNE CHECKPOINT INHIBITOR” (Oregon Health & Science University, priority 2019, published 2022)

Experiments:
LLC-JSP cells = experiment: Cell viability after treatments (Cell Titer Glo), LLC-JSP; type: cell-based, mouse; settings: for 3-day viability of LLC-JSP cells: free mitotic kinase inhibitors
Procedure: (C) Cell viability of murine cancer cells (LLC-JSP, 4T1, B16-F10) and murine bone marrow-derived dendritic cells (BMDC) treated with p-iPLK1-NP.
(B) Treatment effect of ADC versus free alisertib of equivalent dose on viability of LLC-JSP cells (2-days). Free alisertib was dissolved in DMSO before use.
Cell viability after treatments: Cells (1500/well) were plated in white flat bottom 96 well plate overnight. The following day, cells were treated with indicated treatments and media was changed 24 hr post treatment. 3-5 day post treatment, cell viability was assessed using Cell Titer Glo assay (Promega) following manufacturer's instructions. Luminescence was read with Tecan plate reader.

[1] = tested on: PD-L1 surface expression of LLC-JSP cells; experiment: PD-L1 surface expression by flow cytometry, LLC-JSP; type: cell-based, mouse; settings: for surface PD-L1 level of surviving cells: 500 ng/ml
Procedure: FIGS. 4A-4C Treatment effects of mitotic kinase inhibitors on (A) 3-day viability of LLC-JSP cells, (B) PD-L1 expression levels of surviving cells post treatment with 500 ng/ml of volasertib, alisertib, or AZD7762 as determined by flow cytometry and (C) their quantification.
FIGS. 6A-6D Nanoparticle delivery of PLK1 inhibitor volasertib (iPLK1-NP) to mouse NSCLC cells. (FIG. 6A) Schematic of synthesis of iPLK1-NP. (FIG. 6B) Hydrodynamic size of NP (with no inhibitor) and iPLK1-NP measured with Zetasizer. (FIG. 6C) Viability of LLC-JSP cells treated with volasertib (in 1% DMSO/PBS), iPLK1-NP (in PBS), or 1% DMSO/PBS for 4 days. Data presented as mean±SD from 4 independent samples; ****P<0.0001. (FIG. 6D) PD-L1 surface expression of LLC-JSP cells treated with PBS or iPLK1-NP (42 μg/ml NP, 210 ng/ml volasertib) for 3 days.
FIGS. 7A-7E. Nanoparticle for co-delivery of PLK1 inhibitor (iPLK1) and PD-L1 antibody (p-iPLK1-NP). (FIG. 7A) Schematic and (FIG. 7B) hydrodynamic size of p-iPLK1-NP containing 4 wt. % of PD-L1 antibody and 0.5 wt. % of PLK1 inhibitor. (FIG. 7C) 5-day cell viability of LLC-JSP cells treated with iPLK1-NP or p-iPLK1-NP. Data presented as mean±SD from 4 independent samples; ns—not significant. PD-L1 surface expression assessed by flow cytometry after LLC-JSP cells were incubated with various treatments as specified for (FIG. 7D) 2 hrs and (FIG. 7E) 2 days. Doses: free PD-L1 antibody (50 μg/ml), iPLK1-NP (NP containing 50 μg/ml volasertib), and p-iPLK1-NP (NP containing 50 μg/ml volasertib and 2 μg/ml PD-L1 antibody). Left of FIGS. 7D and 7E: representative histograms, right: median intensity (RFU). Data presented as mean±SD from independent duplicates (10,000 events per sample); *P<0.05, **P<0.01, ***P<0.001, ****P<0.0001. Unless specified otherwise, the percent loading is by weight of nanoparticle throughout the application.
(§1) FIGS. 12A and 12B. Inhibition of PLK1 reduces phosphorylation of STAT3. Western blot showing protein expression of PLK1, Pl3Ka, phosphorylated STAT3 (Tyr705), phosphorylated AKT (Ser473), and p-Actin 3 days post treatment (50 nM siRNA) in A549 and H460 NSCLC cell lines. […] The cells were treated with NP containing 30 nM siRNA against PD-L1 (siPDL1) or 30 nM scrambled siRNA (siSCR) at 2 wt. % siRNA. At 72 hr post treatment, cells were harvested and assessed for PD-L1 protein expression by flow cytometry. RFU=Relative fluorescence units.
Flow cytometry: Cells (100K cells/well) were plated in 6 well plates overnight and treated with indicated treatments the next day. Following treatments, cells were collected and aliquoted to […] per sample before washing in FACs buffer and staining. […] Cells were then washed with FACs buffer and analyzed with Guava (50,000 events per sample).

A549 = experiment: Cell cycle arrest in G2/M phase; type: cell-based, human; settings: 72 hr post treatment, 50 nM siRNA, BI 2536 at 10 nM
Procedure: (§2) FIGS. 2A-2D. Effects of siRNA against mitotic regulator PLK1 (siPLK1) on non-small-cell lung carcinoma (NSCLC) cell lines (A549 and H460). (FIG. 2A) 48-hr PLK1 mRNA knockdown (HPRT used as house-keeping gene) and (FIG. 2B) 72-hr PLK1 protein reduction at 50 nM siRNA dose. (FIG. 2C) 4-day cell viability at 30 nM siRNA dose. (FIG. 2D) Cell cycle arrest increase in G2/M phase in A549 72 hr post treatment. Antibody (cetuximab) conjugated NP was used to deliver the siPLK1 (C-siPLK1-NP) or scrambled siRNA control (C-siSCR-NP) at 50 nM siRNA BI 2536 (a PLK1 inhibitor) was used as a drug benchmark at 10 nM. Data presented as mean±SD from independent duplicates (10,000 events per sample); ****P<0.0001 vs. untreat control. Unless specified otherwise, “NP” denotes mesoporous silica nanoparticles coated with cross-linked PEI and PEG, as described in Ngamcherdtrakul et al., Advanced Functional Materials, 25(18):2646-2659, 2015 and U.S. Patent Application Publication No. 2017/0173169.

[2] = tested on: PD-L1 surface expression of A549; experiment: PD-L1 surface expression by flow cytometry, A549; type: cell-based, human; settings: 3 days (72 hr) post siRNA treatment
From the text: (§3) FIGS. 3A-3C. […] (FIG. 3A) PLK1 and PD-L1 mRNA expression in A549 (human NSCLC) at 48 hr post treatment with PLK1 siRNA (siPLK1) or scrambled siRNA (siSCR) normalized to HPRT housekeeping gene. Data presented as mean±SD from triplicates; ****P<0.0001. (FIG. 3B) PD-L1 surface expression of A549 ([…]) and LLC-JSP (a mouse NSCLC, FIG. 3C) at 72 hr post treatments assessed by flow cytometry (10,000 events per sample). Mouse siPLK1 seq. […] (SEQ ID NO: 1); Human siPLK1 seq. […] (SEQ ID NO: 2).
Flow cytometry: Cells (100K cells/well) were plated in 6 well plates overnight and treated with indicated treatments the next day. Following treatments, cells were collected and aliquoted to […] per sample before washing in FACs buffer and staining. Primary and secondary antibodies were stained for 30 mins and 1 hour, respectively, under rocking on ice. After staining, cells were washed in FACs buffer before flow analysis with Guava easyCyte (Millipore Sigma) flow cytometer (10,000 events per sample). For tumors, tumors were harvested, minced, and incubated with 1 mg/ml DNAse for 30 minutes before smashing through 70 μm filter to obtain single cell suspension. RBC lysis buffer was incubated with cells for 5 minutes, and washed with PBS. […] Cells were then washed with FACs buffer and analyzed with Guava (50,000 events per sample).

PLK1 mRNA = experiment: PLK1 knock down by siRNA (RT-qPCR / protein); type: cell-based, human; settings: A549; 48 hr post treatment; normalized to HPRT
Procedure: as §2
FIGS. 3A-3C. […] (FIG. 3B) PD-L1 surface expression of A549 (FIG. 2B) and LLC-JSP (a mouse NSCLC, FIG. 3C) at 72 hr post treatments assessed by flow cytometry (10,000 events per sample). […]
RT-qPCR to assess PLK1 gene knock down: RNA was isolated with GeneJet RNA purification kit (Thermo Fisher Scientific) following manufacturer's instructions. […] Data was analyzed using 2^−ΔΔC(t) method.

[3] = tested on: PD-L1 mRNA expression in A549; experiment: PD-L1 mRNA expression after PLK1 knock-down (RT-qPCR); type: cell-based, human; settings: 48 hr, compared with control treated cells
From the text: as §3
RT-qPCR to assess PLK1 gene knock down: RNA was isolated with GeneJet RNA purification kit (Thermo Fisher Scientific) following manufacturer's instructions. One-Step qRT-PCR was performed using EXPRESS One-Step Superscript™ qRT-PCR Kit (Invitrogen). Cycling conditions: 50° C. for 2 min, 95° C. for 10 min, 40 cycles of 95° C. for 15 s, and 60° C. for 1 min. TAQMAN gene expression primers Human HPRT mRNA (Hs99999909_m1), Human PLK1 mRNA (Hs00983225_g1), and Human PD-L1 (Hs00204257_ml) were used. Data was analyzed using 2^−ΔΔC(t) method.

[4] = tested on: phosphorylated STAT3 (Tyr705); experiment: Western blot of phosphorylated STAT3 after PLK1 inhibition; type: cell-based, human; settings: A549 and H460; 3 days post treatment; 50 nM siRNA
Procedure: as §1
Western Blot. Cells were seeded in 6 well plates overnight and treated with indicated treatments. Cell culture medium was changed one day aftertreatment. Three days post treatment, cells were lysed in RIPA buffer (50-100 μl per well). Lysate was sonicated and centrifuged (15,000 RPM for 15 minutes) and supernatant was collected. Amount of total protein was quantified using BCA. 30 μg of proteins (per sample) were mixed with 4× Novex NuPAGE LDS sample buffer and beta-mercaptoethanol (10% final concentration). Samples were denatured for 5 min at 95° C. and loaded onto gel (NuPAGE) for electrophoresis. Proteins were then transferred onto PVDF-FL membrane and blocked with LICOR blocking buffer. Membranes were incubated with primary antibodies overnight (PLK1, phospho-STAT3 (Tyr705), β-ACTIN) at 4° C. […]

NC(=O)Nc1cc(-c2cccc(F)c2)sc1C(=O)N[C@H]1CCCNC1 [AZD7762]
3-day viability of LLC-JSP cells (LLC-JSP cells): significant cell death
surface PD-L1 level of surviving cells [1]: upregulated surface PD-L1 level

CC[C@@H]1C(=O)N(C)c2cnc(Nc3ccc(C(=O)NC4CCN(C)CC4)cc3OC)nc2N1C1CCCC1 [BI2536]
cell cycle arrest in G2/M phase (A549): G2/M growth arrest

COc1cc(Nc2ncc3c(n2)-c2ccc(Cl)cc2C(c2c(F)cccc2OC)=NC3)ccc1C(=O)O [alisertib]
3-day viability of LLC-JSP cells (LLC-JSP cells): significant cell death
surface PD-L1 level of surviving cells [1]: upregulated surface PD-L1 level

CC[C@@H]1C(=O)N(C)c2cnc(Nc3ccc(C(=O)N[C@H]4CC[C@H](N5CCN(CC6CC6)CC5)CC4)cc3OC)nc2N1C(C)C [volasertib]
cell viability compared with vehicle treated cells (LLC-JSP cells; LLC-JSP, 4 days, dose-dependent): significantly reduced cell viability
3-day viability of LLC-JSP cells (LLC-JSP cells): significant cell death
surface PD-L1 level of surviving cells [1]: upregulated surface PD-L1 level

Mouse siPLK1: Mouse siPLK1 seq. GUGGGCGUGGUACCAUCUGUU (SEQ ID NO: 1) (listed as RNA, chemistry not given here)
PD-L1 surface expression ([1]; 72 hr post siRNA treatment): induces PD-L1 expression

siPLK1: siRNA against PLK1, antisense 5′-UAUUCAUUCUUCUUGAUCCGG-3′; SEQ ID NO: 2 (sense strand lacks entry, further chemistry not given here)
PD-L1 surface expression [2]: increase in PD-L1 surface expression
knockdown of PLK1 mRNA (PLK1 mRNA): 85%
increase in PD-L1 mRNA expression [3]: 2.5 fold
phosphorylation of STAT3 [4]: reduced phosphorylation of STAT3
